In patent publication US11591355B2 (Peloton Therapeutics, Inc., priority 2017, dated 2023):

Legend:
[1] = target: T1, CD73 on U138 human neuroglioma cells (Homo sapiens, UniProt P21589); test: CD73 Cell-Based Assay; details: U138 cells, AMP substrate, 2 hours at 37° C., inorganic phosphate by malachite green
T1 construct: U138 cells were obtained from ATCC and cultured in DMEM with 10% FBS; host or cells: U138 human neuroglioma cells
T1 sequence (P21589 27-549): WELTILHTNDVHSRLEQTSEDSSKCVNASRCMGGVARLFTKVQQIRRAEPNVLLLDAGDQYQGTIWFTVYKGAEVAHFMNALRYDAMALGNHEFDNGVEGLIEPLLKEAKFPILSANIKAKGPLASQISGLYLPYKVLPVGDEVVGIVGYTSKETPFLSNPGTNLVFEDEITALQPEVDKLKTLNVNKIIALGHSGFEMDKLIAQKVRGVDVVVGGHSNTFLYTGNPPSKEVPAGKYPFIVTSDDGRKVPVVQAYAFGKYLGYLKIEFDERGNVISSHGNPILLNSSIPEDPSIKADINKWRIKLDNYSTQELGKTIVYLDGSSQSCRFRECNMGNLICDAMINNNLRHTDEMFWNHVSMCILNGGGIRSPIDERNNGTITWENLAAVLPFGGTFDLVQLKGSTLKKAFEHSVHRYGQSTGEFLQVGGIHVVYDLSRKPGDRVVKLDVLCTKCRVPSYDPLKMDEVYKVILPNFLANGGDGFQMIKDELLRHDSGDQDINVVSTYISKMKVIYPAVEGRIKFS
Method in brief: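 Whole U138 cells washed free of phosphate were incubated with 200 μM AMP (mixture concentration before equal-volume addition) plus compound in HEPES-buffered saline, pH 7.4, for 2 h at 37 °C, 5% CO2. Adenosine-forming activity read as inorganic phosphate released into supernatant by malachite green.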

Human CD73 = target: T2, Human CD73 (Homo sapiens, UniProt P21589); test: CD73 Enzyme Assay; format: biochemical; details: 0.25 nM hCD73, 25 μM AMP, kinetic read at 360 nm; read-out: CD73 Enzyme Assay IC50
T2 construct: purchased R&D Systems; host or cells: CHO cells
T2 sequence (P21589 27-549): T1 sequence (P21589 27-549)

IC50 [1] [µM]	IC50 (Human CD73) [µM]	Compound
< 0.01	< 0.01	CN(c1nc(Cl)nc2c1ccn2[C@@H]1O[C@H](COCP(=O)(O)O)[C@@H](O)[C@H]1O)C1CCCC1 [Compound 192, [(2R,3S,4R,5R)-5-[2-chloro-4-[cyclopentyl-(methyl)amino]pyrrolo-[2,3-d]pyrimidin-7-yl]-3,4-dihydroxy-tetra-hydrofuran-2-yl]-methoxymethylphos-phonic acid]
0.01 to 0.1	0.01 to 0.1	CC(C)OC(=O)OCOP(=O)(O)COC[C@H]1O[C@@H](n2ccc3c(NC4CCCC4)nc(Cl)nc32)[C@H](O)[C@@H]1O [Compound 193, [(2R,3S,4R,5R)-5-[2-chloro-4-(cyclopentyl-amino)pyrrolo[2,3-d]-pyrimidin-7-yl]-3,4-dihydroxy-tetrahydro-furan-2-yl]methoxy-methyl-(isopropoxy-carbonyloxymethoxy)-phosphinic acid]
< 0.01	< 0.01	CC(C)C(=O)OCOP(=O)(O)COC[C@H]1O[C@@H](n2ccc3c(NC4CCCC4)nc(Cl)nc32)[C@H](O)[C@@H]1O [Compound 194, [(2R,3S,4R,5R)-5-[2-chloro-4-(cyclopentyl-amino)pyrrolo[2,3-d]-pyrimidin-7-yl]-3,4-dihydroxy-tetrahydro-furan-2-yl]methoxy-methyl-(2-methyl-propanoyloxymeth-oxy)phosphinic acid]
< 0.01	< 0.01	CCN(c1nc(Cl)nc2c1ccn2[C@@H]1O[C@H](COCP(=O)(O)O)[C@@H](O)[C@H]1O)C1CCCC1 [Compound 195, [(2R,3S,4R,5R)-5-[2-chloro-4-[cyclopentyl-(ethyl)amino]pyrrolo-[2,3-d]pyrimidin-7-yl]-3,4-dihydroxy-tetra-hydrofuran-2-yl]-methoxymethylphos-phonic acid]
< 0.01	< 0.01	O=P(O)(O)COC[C@H]1O[C@@H](n2ccc3c(N(CC4CC4)C4CCCC4)nc(Cl)nc32)[C@H](O)[C@@H]1O [Compound 196, [(2R,3S,4R,5R)-5-[2-chloro-4-[cyclopentyl-(cyclopropylmethyl)-amino]pyrrolo[2,3-d]-pyrimidin-7-yl]-3,4-dihydroxy-tetrahydro-furan-2-yl]methoxy-methylphosphonic acid]
< 0.01	< 0.01	C[C@@H](Nc1nc(Cl)nc2c1ccn2C1O[C@H](COCP(=O)(O)O)[C@@H](O)[C@H]1O)c1ccc(C2CC2)cc1 (stereo partly drawn) [Compound 197, [(2R,3S,4R,5R)-5-[2-chloro-4-[[(1R)-1-(4-cyclopropylphenyl)-ethyl]amino]pyrrolo-[2,3-d]pyrimidin-7-yl]-3,4-dihydroxy-tetra-hydrofuran-2-yl]-methoxymethylphos-phonic acid]
< 0.01	< 0.01	C[C@H](Nc1nc(Cl)nc2c1ccn2[C@@H]1O[C@H](COCP(=O)(O)O)[C@@H](O)[C@H]1O)c1ccc(C2CC2)cc1 [Compound 198, [(2R,3S,4R,5R)-5-[2-chloro-4-[[(1S)-1-(4-cyclopropylphenyl)-ethyl]amino]pyrrolo-[2,3-d]pyrimidin-7-yl]-3,4-dihydroxy-tetra-hydrofuran-2-yl]-methoxymethylphos-phonic acid]
> 1	> 1	Cc1cn([C@@H]2O[C@H](COCP(=O)(O)O)[C@@H](O)[C@H]2O)c2nc(Cl)nc(NC3CCCC3)c12 [Compound 199, [(2R,3S,4R,5R)-5-[2-chloro-4-(cyclopentyl-amino)-5-methyl-pyrrolo[2,3-d]-pyrimidin-7-yl]-3,4-dihydroxy-tetrahydro-furan-2-yl]methoxy-methylphosphonic acid]
0.01 to 0.1	0.01 to 0.1	Cc1cc2c(NC3CCCC3)nc(Cl)nc2n1[C@@H]1O[C@H](COCP(=O)(O)O)[C@@H](O)[C@H]1O [Compound 200, [(2R,3S,4R,5R)-5-[2-chloro-4-(cyclopentyl-amino)-6-methyl-pyrrolo[2,3-d]-pyrimidin-7-yl]-3,4-dihydroxy-tetrahydro-furan-2-yl]methoxy-methylphosphonic acid]
< 0.01	< 0.01	N#Cc1nc(N2CC3CCCC3C2)c2ccn([C@@H]3O[C@H](COCP(=O)(O)O)[C@@H](O)[C@H]3O)c2n1 (stereo partly drawn) [Compound 201, [(2R,3S,4R,5R)-5-[4-(3,3a,4,5,6,6a-hexa-hydro-1H-cyclopenta-[c]pyrrol-2-yl)-2-cyano-pyrrolo[2,3-d]-pyrimidin-7-yl]-3,4-dihydroxy-tetrahydro-furan-2-yl]methoxy-methylphosphonic acid]
0.01 to 0.1	0.01 to 0.1	COC(=O)OCOP(=O)(O)COC[C@H]1O[C@@H](n2ccc3c(NC4CCCC4)nc(Cl)nc32)[C@H](O)[C@@H]1O [Compound 202, [(2R,3S,4R,5R)-5-[2-chloro-4-(cyclopentyl-amino)pyrrolo[2,3-d]-pyrimidin-7-yl]-3,4-dihydroxy-tetrahydro-furan-2-yl]methoxy-methyl-(methoxy-carbonyloxymethoxy)-phosphinic acid]
0.01 to 0.1	0.1 to 1	CC(C)(C)C(=O)OCOP(=O)(COC[C@H]1O[C@@H](n2ccc3c(N4CC5CCCC5C4)nc(Cl)nc32)[C@H](O)[C@@H]1O)OCOC(=O)C(C)(C)C (stereo partly drawn) [Compound 203, [[(2R,3S,4R,5R)-5-[4-(3,3a,4,5,6,6a-hexa-hydro-1H-cyclopenta-[c]pyrrol-2-yl)-2-chloro-pyrrolo[2,3-d]-pyrimidin-7-yl]-3,4-dihydroxy-tetrahydro-furan-2-yl]methoxy-methyl-(2,2-dimethyl-propanoyloxymethoxy)-phosphoryl]oxymethyl 2,2-dimethylpropanoate]
< 0.01	< 0.01	C[C@H](Nc1nc(C#N)nc2c1ccn2[C@@H]1O[C@H](COCP(=O)(O)O)[C@@H](O)[C@H]1O)c1ccc(C2CC2)cc1 [Compound 204, [(2R,3S,4R,5R)-5-[2-cyano-4-[[(1S)-1-(4-cyclopropylphenyl)-ethyl]amino]pyrrolo-[2,3-d]pyrimidin-7-yl]-3,4-dihydroxy-tetra-hydrofuran-2-yl]-methoxymethylphos-phonic acid]
< 0.01	< 0.01	C[C@@H](Nc1nc(C#N)nc2c1ccn2[C@@H]1O[C@H](COCP(=O)(O)O)[C@@H](O)[C@H]1O)c1ccc(C2CC2)cc1 [Compound 205, [(2R,3S,4R,5R)-5-[2-cyano-4-[[(1R)-1-(4-cyclopropylphenyl)-ethyl]amino]pyrrolo-[2,3-d]pyrimidin-7-yl]-3,4-dihydroxy-tetra-hydrofuran-2-yl]-methoxymethylphos-phonic acid]
> 1	0.01 to 0.1	O=P(O)(O)COC[C@H]1O[C@@H](n2ccc3c(Oc4ccccc4)nc(Cl)nc32)[C@H](O)[C@@H]1O [Compound 206, [(2R,3S,4R,5R)-5-(2-chloro-4-phenoxy-pyrrolo[2,3-d]-pyrimidin-7-yl)-3,4-dihydroxy-tetrahydro-furan-2-yl]methoxy-methylphosphonic acid]
0.1 to 1	0.1 to 1	O=P(O)(O)COC[C@H]1O[C@@H](n2ccc3c(Sc4ccccc4)nc(Cl)nc32)[C@H](O)[C@@H]1O [Compound 207, [(2R,3S,4R,5R)-5-(2-chloro-4-phenyl-sulfanyl-pyrrolo[2,3-d]-pyrimidin-7-yl)-3,4-dihydroxy-tetrahydro-furan-2-yl]methoxy-methylphosphonic acid]
0.1 to 1	0.1 to 1	N#Cc1cn([C@@H]2O[C@H](COCP(=O)(O)O)[C@@H](O)[C@H]2O)c2nc(Cl)nc(NC3CCCC3)c12 [Compound 209, [(2R,3S,4R,5R)-5-[2-chloro-5-cyano-4-(cyclopentylamino)-pyrrolo[2,3-d]-pyrimidin-7-yl]-3,4-dihydroxy-tetrahydro-furan-2-yl]methoxy-methylphosphonic acid]
0.1 to 1	0.1 to 1	O=P(O)(O)COC[C@H]1O[C@@H](n2ccc3c(Nc4ccccc4)nc(Cl)nc32)[C@H](O)[C@@H]1O [Compound 211, [(2R,3S,4R,5R)-5-(4-anilino-2-chloro-pyrrolo[2,3-d]-pyrimidin-7-yl)-3,4-dihydroxy-tetrahydro-furan-2-yl]methoxy-methylphosphonic acid]
0.01 to 0.1	0.01 to 0.1	O=P(O)(O)COC[C@H]1O[C@@H](n2ccc3c(-c4ccccc4)nc(Cl)nc32)[C@H](O)[C@@H]1O [Compound 212, [(2R,3S,4R,5R)-5-(2-chloro-4-phenyl-pyrrolo[2,3-d]-pyrimidin-7-yl)-3,4-dihydroxy-tetrahydro-furan-2-yl]methoxy-methylphosphonic acid]
0.01 to 0.1	0.01 to 0.1	O=P(O)(O)COC[C@H]1O[C@@H](n2ccc3c(C4CCCC4)nc(Cl)nc32)[C@H](O)[C@@H]1O [Compound 213, [(2R,3S,4R,5R)-5-(2-chloro-4-cyclopentyl-pyrrolo[2,3-d]-pyrimidin-7-yl)-3,4-dihydroxy-tetrahydro-furan-2-yl]methoxy-methylphosphonic acid]
